From the supplement of paper PMC6045584
± gives the standard deviation of the averaged measurements.

Legend:
CARBOPLATIN = compound: O=C(O)C1(C(=O)O)CCC1.[NH2-].[NH2-].[Pt+2] [CARBOPLATIN]; assay: area under dose-response curve of surviving fraction (unscaled, Aref=0) (surviving fraction x log10(nM)); higher = more resistant; conditions: exposure time: 5 days; dose range 0.5-1000 nM
Method in brief: (§1)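 Tumour cell lines in 384-well plates were exposed to eight inhibitor concentrations, from 0.5 to 1000 nM, for five days, and viability was read by CellTiter-Glo luminescence in three screens per line. Signals were normalised to DMSO-only wells, and 3-parameter logistic regression in the drc R package fitted dose-response survival curves to the surviving fractions. Area under the curve is given as the unscaled activity area. That area is taken over log10 dose with Aref = 0.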

CELECOXIB = compound: Cc1ccc(-c2cc(C(F)(F)F)nn2-c2ccc(S(N)(=O)=O)cc2)cc1 [CELECOXIB]; assay: as above; conditions: exposure time: 5 days; dose range 0.5-1000 nM
Method in brief: as §1

YM155 = compound: COCC[n+]1c2c(n(Cc3cnccn3)c1C)C(=O)c1ccccc1C2=O [YM155]; assay: as above; conditions: exposure time: 5 days; dose range 0.5-1000 nM
Method in brief: as §1

GEFITINIB = compound: COc1cc2ncnc(Nc3ccc(F)c(Cl)c3)c2cc1OCCCN1CCOCC1 [GEFITINIB]; assay: as above; conditions: exposure time: 5 days; dose range 0.5-1000 nM
Method in brief: as §1

CAMPTOTHECIN [1] = compound: T1, CC[C@@]1(O)C(=O)OCc2c1cc1n(c2=O)Cc2cc3ccccc3nc2-1 [CAMPTOTHECIN]; assay: as above; conditions: exposure time: 5 days; dose range 0.5-1000 nM
Method in brief: as §1

[2] = compound: CC(=O)c1c(C)c2cnc(Nc3ccc(N4CCNCC4)cn3)nc2n(C2CCCC2)c1=O; assay: as above; conditions: exposure time: 5 days; dose range 0.5-1000 nM
Method in brief: as §1

PACLITAXEL = compound: CC(=O)O[C@H]1C(=O)[C@@]2(C)[C@H]([C@H](OC(=O)c3ccccc3)[C@]3(O)C[C@H](OC(=O)[C@H](O)[C@@H](NC(=O)c4ccccc4)c4ccccc4)C(C)=C1C3(C)C)[C@]1(OC(C)=O)CO[C@@H]1C[C@@H]2O [PACLITAXEL]; assay: as above; conditions: exposure time: 5 days; dose range 0.5-1000 nM
Method in brief: as §1

[3] = compound: CC(=O)NCC(=O)N1[C@@H]2CC[C@H]1c1ccc(Nc3ncc(C(F)(F)F)c(NC4CCC4)n3)cc12; assay: as above; conditions: exposure time: 5 days; dose range 0.5-1000 nM
Method in brief: as §1

CAMPTOTHECIN [4] = compound: T1, CAMPTOTHECIN; assay: surviving fraction relative to DMSO-only wells; higher = less growth inhibition; conditions: exposure time: 5 days
Method in brief: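 Each tumour cell line was screened three times, and only lines with replicate Pearson r >0.7 and median Z' >0.3 were kept. Cells in log phase were seeded at 250–500 per well in 384-well plates, left 24 hours, then exposed continuously for five days to inhibitors at 0.5, 1, 5, 10, 50, 100, 500 and 1000 nM. Viability was read as CellTiter-Glo luminescence, with surviving fraction normalised to the median of DMSO-only wells.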

OSI-906 = compound: C[C@]1(O)C[C@@H](c2nc(-c3ccc4ccc(-c5ccccc5)nc4c3)c3c(N)nccn32)C1 [OSI-906]; assay: area under dose-response curve of surviving fraction (unscaled, Aref=0) (surviving fraction x log10(nM)); higher = more resistant; conditions: exposure time: 5 days; dose range 0.5-1000 nM
Method in brief: as §1

Row | Test System | area under dose-response curve (CARBOPLATIN) | area under dose-response curve (CELECOXIB) | area under dose-response curve (YM155) | area under dose-response curve (GEFITINIB) | area under dose-response curve (CAMPTOTHECIN [1]) | area under dose-response curve [2] | area under dose-response curve (PACLITAXEL) | area under dose-response curve [3] | surviving fraction (CAMPTOTHECIN [4]; 0.5 nM) | surviving fraction (CAMPTOTHECIN [4]; 1 nM) | surviving fraction (CAMPTOTHECIN [4]; 5 nM) | surviving fraction (CAMPTOTHECIN [4]; 10 nM) | surviving fraction (CAMPTOTHECIN [4]; 50 nM) | surviving fraction (CAMPTOTHECIN [4]; 100 nM) | surviving fraction (CAMPTOTHECIN [4]; 500 nM) | surviving fraction (CAMPTOTHECIN [4]; 1000 nM) | area under dose-response curve (OSI-906)
1 | YAMATO SYNOVIAL | 4.26 | 4.62 | 1.2 | 4.25 | 0.991 | 3.92 | 1.69 | 2.87 | 0.118 ± 0.0092 | 0.562 ± 0.092 | 0.466 ± 0.035 | 0.479 ± 0.033 | 0.0957 ± 0.0085 | 0.247 ± 0.026 | 0.16 ± 0.0095 | 0.284 ± 0.028 | –
2 | MDAMB361 BREAST | 2.64 | 2.93 | 1.61 | 2.9 | 2.14 | 2.85 | 2.36 | 3.12 | 0.664 ± 0.069 | 0.737 ± 0.045 | 0.747 ± 0.096 | 0.723 ± 0.066 | 0.774 ± 0.071 | 0.702 ± 0.032 | 0.397 ± 0.038 | 0.38 ± 0.041 | 2.51
3 | KPD BONE | 3.52 | 3.48 | 1.1 | 3.15 | 1.2 | 3.15 | 1.47 | 2.67 | 0.886 ± 0.02 | 0.856 ± 0.041 | 0.509 ± 0.0098 | 0.327 ± 0.004 | 0.29 ± 0.015 | 0.15 ± 0.016 | 0.041 ± 0.0027 | 0.0363 ± 0.0045 | 2.38
4 | DU4475 BREAST | 3.22 | 2.98 | 1.66 | 3.01 | 0.671 | 3.51 | 0.884 | 1.69 | 0.759 ± 0.11 | 0.643 ± 0.064 | 0.28 ± 0.055 | 0.135 ± 0.018 | 0.0357 ± 0.0042 | 0.0227 ± 0.0045 | 0.0217 ± 0.0015 | 0.0247 ± 0.0025 | 2.23
5 | HOS BONE | 3.54 | 3.42 | 0.418 | 3.42 | 1.25 | 3.47 | 0.728 | 2.69 | 0.902 ± 0.0096 | 0.889 ± 0.017 | 0.758 ± 0.011 | 0.25 ± 0.021 | 0.1 ± 0.0059 | 0.056 ± 0.005 | 0.0223 ± 0.00058 | 0.0237 ± 0.00058 | 3.06
6 | MDAMB453 BREAST | 3.54 | 3.64 | 1.04 | – | 2.11 | 3.52 | 1.23 | 2.73 | 0.966 ± 0.069 | 0.966 ± 0.017 | 1.01 ± 0.048 | 0.942 ± 0.058 | 0.43 ± 0.03 | 0.453 ± 0.015 | 0.109 ± 0.016 | 0.091 ± 0.0027 | –
7 | 93VU HEADNECK | 4.03 | 3.54 | 2.62 | 2.74 | 1.8 | 3.72 | 1.04 | 2.61 | 0.844 ± 0.091 | 0.838 ± 0.038 | 0.805 ± 0.036 | 0.789 ± 0.063 | 0.464 ± 0.021 | 0.277 ± 0.043 | 0.103 ± 0.018 | 0.061 ± 0.007 | 2.69
8 | BT549 BREAST | 3.61 | 3.78 | 1.74 | 3.57 | 0.714 | – | 0.396 | 2.58 | 0.743 ± 0.096 | 0.672 ± 0.094 | 0.377 ± 0.018 | 0.103 ± 0.014 | 0.032 ± 0.004 | 0.0227 ± 0.00058 | 0.02 | 0.023 ± 0.002 | 3.07
